Test [1] concerns bacteria. The test is described as follows: Bacteria population growth and activity from intensity of a diffraction maximum, treatment with antibiotic. Format: cell-based. The text has this:
In FIG. 16, it can be seen that the intensity of the diffraction maximum decreases with time for the bacteria sample. This decrease is due to an increasing division of the bacteria, i.e. a continuous increase in the bacteria population or, in other words, an increase in the number of phase objects which increasingly disturb the constructive interference in the diffraction maximum and thereby lead to a decrease in the intensity. In FIG. 16, it can be further observed that with increasing time, the intensity increasingly fluctuates, which can be attributed to the activity of the cells.
Further shown in FIG. 17 is an exemplary enlarged section of the course of the measurement signals, in which the fluctuations of the signal can be clearly seen. By fitting a growth curve, which includes the division rate as a parameter, the division rate of the bacteria can be discerned from the signal.
It can be seen from FIG. 18 that the standard deviation increases with time. This standard deviation represents fluctuations of the signals on a short time scale which in turn are a measure for the activity of the bacteria, which will be explained in more detail with reference to FIG. 19 below.

The subject of test [2] is Dictyostelium discoideum cell. The experiment in a line: Cell motility by Fourier analysis of the temporal diffraction signal when an active substance is added. Format: cell-based. The following applies: active substance added to the medium in the sample chamber at time t=0; FIG. 14. The text has this:
In FIG. 11b, a three-dimensional view is shown top left, a plan view is shown top right, and a cross section of the sample holder G is shown at the bottom. […] A surrounding medium or an active substance can be introduced into the receptacle, which is formed by the sample chamber. A sensor with a grid, which is arranged on a substrate, is located within the sample chamber. […] Furthermore, biological cells are located on the grid, where the reaction of the cells to the active substances is to be investigated. In particular, in the illustrated case is to be investigated how the motility of the cells changes due to the addition of the active substance.
In this case, the time axis runs from top to bottom and the frequency axis runs from left to right. At time t=0, the active substance, Latruncalin A, is added to the medium located in the sample chamber.

Structures are written as SMILES.

Take `CC1(C)S[C@@H]2[C@H](NC(=O)[C@H](N)c3ccccc3)C(=O)N2[C@H]1C(=O)O` [AMP]: the “normalized intensity of the diffraction maximum as a function of time” value in test [1] (4 mg/l applied at 60 min., FIG. 19 row 3 column c) is “the intensity starts increasing again after 90 min”; in test [1] (double dose of 2 mg/1, FIG. 19 row 2 column c) it was “the decrease in the normalized intensity flattens at 120 min”; in test [1] (treated after 60 min. of growth, concentration 1 mg/l, FIG. 19 row 1 column c) it was “the normalized intensity decreases, which indicates a further growth of the bacteria population”. The “mean value of the standard deviation of the intensity as a function of time” value is “a rapid decrease in the standard deviation, which is even more pronounced than in the second row” in test [1] (4 mg/l applied at 60 min., FIG. 19 row 3 column d); “at 120 min. the standard deviation decreases significantly, which is again indicative of cell death” in test [1] (double dose of 2 mg/1, FIG. 19 row 2 column d); “the standard deviation reaches a plateau at 120 min. and decreases thereafter, which suggests that the bacteria cells die” in test [1] (treated after 60 min. of growth, concentration 1 mg/l, FIG. 19 row 1 column d).
With `C/C1=C/C(=O)O[C@@H]2C[C@@H](CC[C@H](C)/C=C\C=C\CC1)O[C@@](O)([C@@H]1CSC(=O)N1)C2` [Latruncalin A, Latrunculin A], in test [2], the “temporal course of the Fourier coefficients” value is reported as “a rise in the Fourier coefficients, which subside again with increasing exposure time”.
